# Source: US7718578B2, “Method of synthesis and testing of combinatorial libraries using microcapsules” (Medical Research Council, priority 2003, dated 2010)
# Key:
# [1] = Compartmentalisation of small molecules in water-in-fluorocarbon emulsions (epifluorescence microscopy); type: physicochemical; details: water-in-perfluorooctyl bromide emulsions mixed by vortexing, 24 hours after mixing
# Protocol: Water-in-fluorocarbon emulsions containing 95% (v/v) perfluorooctyl bromide, 5% (v/v) phosphate buffered saline containing the molecule of interest in solution, and 2% (w/v) C8F17C11H22OP(O)[N(CH2CH2)2O]2 (F8H11DMP) as surfactant were formed essentially as (Sadtler et al., 1996) by extrusion (15 times) through 14 μm filters (Osmonics) or by homogenising for 5 min at 25,000 r.p.m. using an Ultra-Turrax T8 Homogenizer (IKA) with a 5 mm dispersing tool. Emulsions were made containing a series of small fluorescent molecules dissolved in the aqueous phase at concentrations from […] to 2 mM. These molecules, including calcein, texas red, fluorescein, coumarin 102, 7-hydroxycoumarin-3-carboxylic acid and 7-diethylamino-4-methyl coumarin (coumarin 1), had molecular weights from 203 to 625 Da and Log P values—calculated using SRC's LogKow/KowWin Program (Meylan and Howard, 1995)—ranging from −0.49 to 4.09. Emulsions containing different coloured fluorochromes were mixed by vortexing. Compartmentalisation was observed by epifluorescence microscopy of the mixed emulsions. No exchange between compartments was observed 24 hours after mixing (see FIG. 5).
# [2] = target: T1, human recombinant PTP1B, residues 1-322 (Homo sapiens, UniProt P18031); assay: Screening for PTP1B inhibition using microcapsules in microfluidic systems (DiFMUP, epifluorescence microscope); type: biochemical; details: Example 5: 100 μM compound solution, PTP1B 50 mU/ml, microfluidic droplets in PFD carrier fluid
# T1 construct: human recombinant PTP1B, residues 1-322; Biomol Research Laboratories, Inc; purchased Biomol Research Laboratories, Inc
# T1 sequence (P18031 1-322): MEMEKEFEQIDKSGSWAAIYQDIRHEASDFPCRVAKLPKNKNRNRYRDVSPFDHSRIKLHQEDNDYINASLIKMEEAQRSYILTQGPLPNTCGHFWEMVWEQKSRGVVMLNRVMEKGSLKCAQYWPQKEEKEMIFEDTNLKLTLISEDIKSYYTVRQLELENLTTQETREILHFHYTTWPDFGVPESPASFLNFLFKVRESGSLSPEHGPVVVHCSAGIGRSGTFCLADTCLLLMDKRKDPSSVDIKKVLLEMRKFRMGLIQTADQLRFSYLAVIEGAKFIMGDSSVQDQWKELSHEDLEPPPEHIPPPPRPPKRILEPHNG
# Protocol: Microchannels are fabricated with rectangular cross-sections using rapid prototyping in poly(dimethylsiloxane) (PDMS) (McDonald and Whitesides, 2002) and rendered hydrophobic as (Song and Ismagilov, 2003). Syringe pumps were used to drive flows (Harvard Apparatus PHD 2000 Infusion pumps). For aqueous solutions, 50 μl Hamilton Gastight syringes (1700 series, TLL) with removeable needles of 27-gaugeare used with 30-gauge Teflon tubing (Weico Wire and Cable). For the carrier fluid, 1 ml Hamilton Gastight syringes (1700 series, TLL) are used with 30-gauge Teflon needles with one hub from Hamilton (Song and Ismagilov, 2003). The carrier fluid is 9% (v/v) C6F11C2H4OH in perfluorodecaline (PFD) (Song et al., 2003). All water-soluble reagents were dissolved in (25 mM HEPES, pH 7.4, 125 mM NaCl, 1 mM EDTA), a buffer compatible with PTP1B activity.
# These three steams are continuously injected into a flow of water immiscible fluorocarbon carrier fluid (9% (v/v) C6F11C2H4OH in PFD). Inlet channels for the aqeous solutions are […] wide and channel for PFD is 28 μm wide. […]
# The channel immediately downstream of the point of droplet formation is winding with a peak to peak distance of 50 μm for a distance of 1 mm. […] Fluorescence of the microcapsules due to production of DiFMU (excitation/emmission maxima 358/452 nm; blue fluorescence) is measured using an epifluorescence microscope. […]
# [3] = target: T1, human recombinant PTP1B, residues 1-322; assay: Screening for PTP1B inhibitors in water-in-oil emulsion microcapsules with fluorogenic substrate DiFMUP, multi-colour flow cytometry; type: biochemical; details: PTP1B 5 mU/ml, 37° C. for 30 min
# Protocol: A solution of 1% (w/v) Span 60 and 1% (w/v) cholesterol in decane (all from Sigma Aldrich) is prepared by dissolving 80 mg of Span 60 and 80 mg of cholesterol into 7.84 ml of decane. The decane is heated to 45° C. to allow complete solubilization of the surfactant and cholesterol. The surfactant/decane solution is divided over batches of 200 μl and placed in a block-heater at 37° C.
# A hand-extruding device (Mini extruder, Avanti Polar Lipids Inc, Alabaster, Ala., USA) is assembled according to the manufacturer's instructions. For extrusion, a single 19 mm Track-Etch polycarbonate filter with average pore size of 14 μm (Whatman Nuclepore, Whatman, Maidstone, UK) is fitted inside the mini extruder. Two gas-tight 1 ml Hamilton syringes (Gastight #1001, Hamilton Co, Reno, Nev., USA) are used for extrusion. […]
# The two emulsions are mixed by vortexing in ratios varying from 1:1000 to 1:1 (compound 2 emulsion: hydrocinnamic acid emulsion) and incubated at 37° C. for 30 min. Inhibitors reduce the amount of non-fluorescent substrate (DiFMUP) converted to the dephosphorylated product (DiFMU; excitation/emmission maxima 358/452 nm; blue fluorescence). […]
# The double emulsions are then analysed by multi-colour flow cytometery using a MoFlo (Cytomation) flow cytometer. […]
Compound,exchange between microdroplets / compartments [1],fluorescence of microcapsules due to production of DiFMU [2],"blue fluorescence of microcapsules (dephosphorylation of DiFMUP by PTP1B) ([3]; Example 1: 100 μM compound, two emulsions mixed by vortexing)","blue fluorescence of microcapsules (dephosphorylation of DiFMUP by PTP1B) ([3]; Example 2: 100 μM compound, mixtures added sequentially while homogenising)"
O=C(O)CN(CC(=O)O)Cc1cc2c(cc1O)Oc1cc(O)c(CN(CC(=O)O)CC(=O)O)cc1C21OC(=O)c2ccccc21 [calcein],No exchange,–,–,–
O=C(O)CCc1ccccc1 [hydrocinnamic acid],–,exhibiting blue fluorescence,blue fluorescence due to dephosphorylation of DiFMUP by PTP1B,blue fluorescence due to dephosphorylation of DiFMUP by PTP1B
texas-red,No exchange,–,–,–
